According to US4092315A, “Novel crystalline forms of prazosin hydrochloride” (Pfizer Inc., priority 1976, dated 1978):
“Also recorded” adds a separate entry of the source.

Experiments:
Assay type in all cases: physicochemical
[1] = Moisture uptake of anhydrate, monohydrate and dihydrate at room temperature, 75% relative humidity
Protocol: When samples of the anhydrate and monohydrate are stored at room temperature and 75% relative humidity they absorb moisture rapidly to form the dihydrate (8% water) in about 24 hours.

[2] = Compressed disc (intrinsic) dissolution in water at 37° C.; conditions: slope between 4 and 10 minutes, 150 rpm, hydrochloride
Protocol: Compressed disc dissolution studies were carried out by means of the procedure developed by Hamlin et al., J. Pharm, Sci., 51, 432(1962). A 300 mg. sample of powder was compressed against a flat surface at 3000 psi. for 2 minutes into a flat round disc using a tablet die of 7/16 inch diameter. The die holding the compressed disc was stoppered at the open end and placed into a plastic holder. This assembly was then placed into a jar containing 1000 ml. of water equilibrated at 37° C. The stirring rate of a teflon paddle centered in the jar was maintained at 150 revolutions per minute. The solution was pumped continuously through a Millipore filter ([…] pore size) into a flow cell of a Beckman Acta II spectrophotometer which automatically recorded any absorbance changes at 246 nm.
Table VI compares the intrinsic dissolution rates of various forms of prazosin hydrochloride. The rates were determined from the slopes of the compressed disc dissolution profiles between 4 and 10 minutes.

[3] = Hygroscopicity: water content (Karl Fischer) of samples on exposure to humidity; conditions: for Water Content: 37° C.; for hygroscopicity (in words): compared with the other forms
Protocol: Since moisture uptake affects integrity of a drug form, the α-, β- and γ- crystalline polymorphs of prazosin hydrochloride were compared for their relative hygroscopicity. Samples of each polymorph were placed in an open beaker and stored in a chamber maintained at 37° C. and 75% relative humidity. Portions were withdrawn periodically and their water content determined by the Karl Fischer method.

[4] = as above; conditions: room temperature, 20% relative humidity, initially 13.5% water
[5] = Conversion to hydrate on contact with water (microscopy, trituration); conditions: drop of water on microscope slide or excess of water, hydrochloride
Text: When samples of the α-, β- and γ- polymorphs are triturated with water the resulting product in each case is found to give an infrared spectrum identical to that of the prazosin hydrochloride hydrates.
The β-form consisted of dark, monoclinic crystals, while the γ-form and polyhydrate are both needle-like crystals.
This is in agreement with the above mentioned change in the infrared spectra of the α-, β-, γ- polymorphs to that of the hydrates of prazosin hydrochloride upon trituration of each of the crystalline polymorphs with water. Stability Studies

[6] = 5 days, 75% R.H., hydrochloride
[7] = 12 days, 75% R.H., hydrochloride
[8] = 25 days, 75% R.H., hydrochloride
[9] = 34 days, 75% R.H., hydrochloride

## COc1cc2nc(N3CCN(C(=O)c4ccco4)CC3)nc(N)c2cc1OC.Cl [anhydrate, 2-[4-(2-furoyl)piperazin-1-yl]-4-amino-6,7-dimethoxyquinazoline hydrochloride]
[1]; about 24 hours, room temperature, 75% relative humidity
  water content on storage (dihydrate formed): 8%
[1]; room temperature, 75% relative humidity
  time to form the dihydrate: about 24 hours
[2]; listed as Anhydrate
  Intrinsic Dissolution Rate: 2.35 μg/liter sec.

## COc1cc2nc(N3CCN(C(=O)c4ccco4)CC3)nc(N)c2cc1OC.Cl [dihydrate, 2-[4-(2-furoyl)piperazin-1-yl]-4-amino-6,7-dimethoxyquinazoline hydrochloride]
[1]; after 4 days, room temperature, 75% relative humidity
  equilibrium water content: 13.5%

## COc1cc2nc(N3CCN(C(=O)c4ccco4)CC3)nc(N)c2cc1OC.Cl [methanolate, 2-[4-(2-furoyl)piperazin-1-yl]-4-amino-6,7-dimethoxyquinazoline hydrochloride]
[2]; listed as Methanolate
  Intrinsic Dissolution Rate: 2.68 μg/liter sec.

## COc1cc2nc(N3CCN(C(=O)c4ccco4)CC3)nc(N)c2cc1OC.Cl [monohydrate, 2-[4-(2-furoyl)piperazin-1-yl]-4-amino-6,7-dimethoxyquinazoline hydrochloride]
[1]; exposure to moist air
  reversion upon exposure to moist air (in words): revert to polyhydrate

## COc1cc2nc(N3CCN(C(=O)c4ccco4)CC3)nc(N)c2cc1OC.Cl [polyhydrate, 2-[4-(2-furoyl)piperazin-1-yl]-4-amino-6,7-dimethoxyquinazoline hydrochloride]
[3]; 10 days, 75% relative humidity, initially 13.7% water
  Water Content: 13.2%
[3]; 23 days, 75% relative humidity, initially 13.7% water
  Water Content: 13.4%
[3]; other samples exposed to high humidity
  moisture: up to 15%
[2]; listed as Polyhydrate
  Intrinsic Dissolution Rate: 2.57 μg/liter sec.
[4]; 18 days
  Water Content: 13.0%
[4]; 35 days
  Water Content: 13.1%

## COc1cc2nc(N3CCN(C(=O)c4ccco4)CC3)nc(N)c2cc1OC.Cl [α-form, 2-[4-(2-furoyl)piperazin-1-yl]-4-amino-6,7-dimethoxyquinazoline hydrochloride]
[3]; [6]
  Water Content: 0.32 % by Weight
[3]; [7]
  Water Content: 0.85 % by Weight
[3]; [8]
  Water Content: 1.18 % by Weight
[3]; [9]
  Water Content: 1.54 % by Weight
[3]; hydrochloride
  hygroscopicity (in words): relatively non-hydroscopic when compared with the β- and γ-forms; also recorded: non-hygroscopic
[2]; listed as α-
  Intrinsic Dissolution Rate: 3.25 μg/liter sec.
[5]
  conversion to hydrate on contact with water (in words): converted to the polyhydrate
[5]; listed as α-
  conversion to hydrate on contact with water (in words): sharp needle-like crystals of hydrate grew

## COc1cc2nc(N3CCN(C(=O)c4ccco4)CC3)nc(N)c2cc1OC.Cl [β-form, 2-[4-(2-furoyl)piperazin-1-yl]-4-amino-6,7-dimethoxyquinazoline hydrochloride]
[3]; [6]
  Water Content: 0.59 % by Weight
[3]; [7]
  Water Content: 1.18 % by Weight
[3]; [8]
  Water Content: 4.66 % by Weight
[3]; [9]
  Water Content: 6.06 % by Weight
[3]; hydrochloride
  hygroscopicity (in words): hygroscopic
[2]; listed as β-
  Intrinsic Dissolution Rate: 3.36 μg/liter sec.
[5]; listed as β-
  conversion to hydrate on contact with water (in words): sharp needle-like crystals of hydrate grew

## COc1cc2nc(N3CCN(C(=O)c4ccco4)CC3)nc(N)c2cc1OC.Cl [γ-form, 2-[4-(2-furoyl)piperazin-1-yl]-4-amino-6,7-dimethoxyquinazoline hydrochloride]
[3]; [6]
  Water Content: 0.16 % by Weight
[3]; [7]
  Water Content: 4.61 % by Weight
[3]; [8]
  Water Content: 9.47 % by Weight
[3]; [9]
  Water Content: 9.05 % by Weight
[3]; hydrochloride
  hygroscopicity (in words): more hygroscopic then the β-form
[3]; infrared spectrum (KBr) after exposure to moisture
  change of form on exposure to moisture (in words): formation of a hydrate
[2]; listed as γ-
  Intrinsic Dissolution Rate: 2.35 μg/liter sec.
[5]; listed as γ-forms
  conversion to hydrate on contact with water (in words): sharp needle-like crystals of hydrate grew
